Assay results taken from patent US20030212051A1, “Bile acid containing prodrugs with enhanced bioavailabilty” (priority 2003, published 2003).
Structures can show the parent of a compound that is named as a salt. Where two headings read alike, the source gives them in different places. One block for each molecule: values may come before it.

What was measured:
[1] = target: T1, human intestinal bile acid transporter (hIBAT) (Homo sapiens, UniProt Q12908); experiment: Competitive inhibition of 3H-taurocholate uptake in COS-hIBAT cells; format: cell-based; details: for Ki: COS-7 cells transfected with hIBAT, HBSS with sodium, value (±SEM); for inhibition of 3H-taurocholate uptake / interaction with hIBAT (in words): COS-hIBAT cells, 0.25 μM 3H-taurocholate, valacyclovir 10 to 600 μM, atenolol 10 to 200 μM, glycine and taurine 50 to 200 μM, bile acids 1 to 100 μM
T1 construct: expressed in transfected cells; host or cells: COS-7 cells, transient transfection with pCMV5-hIBAT (LipofectAMINE 2000)
T1 sequence (Q12908 1-348): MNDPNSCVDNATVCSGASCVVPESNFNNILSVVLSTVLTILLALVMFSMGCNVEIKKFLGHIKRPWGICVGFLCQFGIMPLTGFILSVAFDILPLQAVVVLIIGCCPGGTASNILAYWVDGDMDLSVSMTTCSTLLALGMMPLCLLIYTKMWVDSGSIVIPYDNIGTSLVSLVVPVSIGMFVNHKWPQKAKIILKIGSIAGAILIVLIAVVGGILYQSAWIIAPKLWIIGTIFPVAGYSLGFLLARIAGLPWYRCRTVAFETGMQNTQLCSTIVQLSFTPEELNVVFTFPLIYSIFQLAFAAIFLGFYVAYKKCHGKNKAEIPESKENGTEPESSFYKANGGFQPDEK
Protocol: Cell dilutions are streaked on nutrient agar plates containing 50 μg/ml ampicillin, and incubated at 37° C. overnight. Isolated colonies are selected aseptically, and are used to inoculate a 200 ml nutrient broth culture containing 50 μg/ml ampicillin. […] After an isopropanol precipitation and ethanol wash, the DNA is reconstituted in 600 μl of sterile deionized water. […] Cells are transfected at 24 hours post seeding. For each well transfected, 0.8 μg hIBAT cDNA is combined with LipofectAMINE 2000 reagent and incubated at room temperature for 20 minutes to allow complexes to form. A volume of 100 μl of hIBAT-lipid complex is added to each well of cells.
Uptake studies are performed on COS-hIBAT cells at 24 hours post-transfection. […] Because bile acid transport is sodium dependent, this MHBSS approach allows for the simple modification of the uptake buffer to exclude all sources of sodium, and thus enables for a control uptake assay under sodium-free conditions.
Incubation conditions and analysis are performed as described for the Km and Vmax studies. The following equation (Formula 2) is used to estimate the Ki for a series of naturally occurring bile acids: [formula]
Inhibition studies are performed in triplicate.

[2] = system: Caco-2 monolayers; details: across Caco-2 monolayers; example value for reference marker; cited from earlier work
[3] = target: T2, human intestinal peptide transporter (PepT1) (Homo sapiens, UniProt P46059); details: stable lines of CHO/PepT1; cited from earlier work
T2 sequence (P46059 1-708): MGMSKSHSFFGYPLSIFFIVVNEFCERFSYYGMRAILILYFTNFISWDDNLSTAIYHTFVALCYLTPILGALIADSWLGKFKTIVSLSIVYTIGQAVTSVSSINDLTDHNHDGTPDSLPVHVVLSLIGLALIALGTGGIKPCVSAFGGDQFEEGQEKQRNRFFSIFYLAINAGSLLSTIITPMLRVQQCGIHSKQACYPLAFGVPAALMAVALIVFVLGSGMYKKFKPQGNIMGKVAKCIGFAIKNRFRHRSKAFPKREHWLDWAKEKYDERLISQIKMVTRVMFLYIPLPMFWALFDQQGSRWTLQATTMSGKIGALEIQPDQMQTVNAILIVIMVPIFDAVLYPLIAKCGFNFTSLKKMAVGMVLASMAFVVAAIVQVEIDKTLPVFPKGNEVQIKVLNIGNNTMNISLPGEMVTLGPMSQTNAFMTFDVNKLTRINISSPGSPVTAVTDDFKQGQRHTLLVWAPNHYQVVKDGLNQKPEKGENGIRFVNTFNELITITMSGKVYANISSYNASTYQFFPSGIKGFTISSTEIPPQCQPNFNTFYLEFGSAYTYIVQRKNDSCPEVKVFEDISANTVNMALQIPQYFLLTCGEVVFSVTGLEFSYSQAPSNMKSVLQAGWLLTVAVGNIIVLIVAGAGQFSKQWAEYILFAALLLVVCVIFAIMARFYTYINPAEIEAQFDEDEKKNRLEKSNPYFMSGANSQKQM

[4] = cited from earlier work
[5] = read-out: Ki, inhibition of 3H-taurocholate uptake

Structure (SMILES): COCCc1ccc(OCC(O)CNC(C)C)cc1 (centres unmarked) [metoprolol tartrate]
permeability [2]: 40 ×10⁻⁶ cm/s

Structure (SMILES): CC(C)[C@H](N)C(=O)OCCOCn1cnc2c(=O)[nH]c(N)nc21 [valacyclovir]
Ki [3]: 1100 µM | inhibition of 3H-taurocholate uptake / interaction with hIBAT (in words) [1]: no inhibition | inhibition of 3H-taurocholate uptake / interaction with hIBAT (in words) ([1]; listed as Valacyclovir): do not inhibit | bioavailability after oral administration [4]: 54%

Structure (SMILES): CC(C)C(NC(=O)CCC(C)C1CCC2C3CCC4CC(O)CCC4(C)C3CC(O)C12C)C(=O)OCCOCn1cnc2c(=O)[nH]c(N)nc21 (centres unmarked) [acyclovir valyldeoxycholate]
Ki [1, 5]: 401 µM

Structure (SMILES): C[C@H](CCC(=O)O)[C@H]1CC[C@H]2[C@@H]3CC[C@@H]4C[C@H](O)CC[C@]4(C)[C@H]3CC[C@]12C [lithocholate]
inhibition of 3H-taurocholate uptake / interaction with hIBAT (in words) [1]: never reaches 50% maximal velocity

Structure (SMILES): CC(C)[C@H](NC(=O)CC[C@@H](C)[C@H]1CC[C@H]2[C@@H]3[C@H](O)C[C@@H]4C[C@H](O)CC[C@]4(C)[C@H]3CC[C@]12C)C(=O)OCCOCn1cnc2c(=O)[nH]c(N)nc21 [acyclovir valylchenodeoxycholate]
Ki [1, 5]: 35.6 µM

Continued, values first:

Ki [1]: 5.4 µM
Structure (SMILES): C[C@H](CCC(=O)O)[C@H]1CC[C@H]2[C@@H]3[C@H](O)C[C@@H]4C[C@H](O)CC[C@]4(C)[C@H]3CC[C@]12C [chenodeoxycholate]

inhibition of 3H-taurocholate uptake / interaction with hIBAT (in words) [1]: not reduced
Structure (SMILES): NCCS(=O)(=O)O [taurine]

inhibition of 3H-taurocholate uptake / interaction with hIBAT (in words) [1]: not reduced
Structure (SMILES): NCC(=O)O [glycine]
